The values that follow come from PubChem BioAssay AID1259411 (Chemical Carcinogenesis Research Information System (CCRIS), 2018).

The structures appear in SMILES notation. Calls of active or inactive are those of the source. How the calls were made is not given here.

In this data set the test system is rodent carcinogenicity bioassays, tumor incidence. The experiment in a line: CCRIS carcinogenicity studies. A digest of the protocol:
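Archive of carcinogenicity, mutagenicity, tumor promotion and tumor inhibition results drawn from journals, NCI reports and other sources, expert-reviewed; covers 1985-2011 and is no longer updated.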

Turning to `Cl/C=C/CCl`, the carcinogen call (Species: MOUSE, Strain/Sex: B6C3F1/FEMALE, Route: GAVAGE, Dose: 0, 50, 100 MG/KG BODY WT (TELONE II) IN CORN OIL 3 D/WK FOR 104 WK, Dose: 0, 50, 100 MG/KG BODY WT (TELONE II) IN CORN OIL 3 D/WK FOR 104 WK, Tumor Site: Type of Lesion: URINARY BLADDER: TRANSITIONAL CELL CARCINOMA, LUNG: ALVEOLAR/BRONCHIOLAR ADENOMA, ALVEOLAR/BRONCHIOLAR ADENOMA OR CARCIN) is “active; positive”; the carcinogen call (Species: MOUSE, Strain/Sex: B6C3F1/FEMALE, Route: INHALATION, Dose: 0, 5, 20, 60 PPM TECHNICAL GRADE 6 HR/D 5 D/WK FOR 2 YR (STUDY DURATION: 2 YR), Dose: 0, 5, 20, 60 PPM TECHNICAL GRADE 6 HR/D 5 D/WK FOR 2 YR (STUDY DURATION: 2 YR)) was “inactive; negative”; the carcinogen call (Species: MOUSE, Strain/Sex: B6C3F1/FEMALE, Route: ORAL, Dose: 0, 2.5, 25, 50 MG/KG BW IN DIET FOR 104 WK (STUDY DURATION: 104 WK), Dose: 0, 2.5, 25, 50 MG/KG BW IN DIET FOR 104 WK (STUDY DURATION: 104 WK)) was “inactive; negative”; the carcinogen call (Species: MOUSE, Strain/Sex: B6C3F1/MALE, Route: INHALATION, Dose: 0, 5, 20, 60 PPM TECHNICAL GRADE 6 HR/D 5 D/WK FOR 2 YR (STUDY DURATION: 2 YR), Dose: 0, 5, 20, 60 PPM TECHNICAL GRADE 6 HR/D 5 D/WK FOR 2 YR (STUDY DURATION: 2 YR), Tumor Site: Type of Lesion: LUNG: BRONCHIOALVEOLAR ADENOMA) is “active; positive”; the carcinogen call (Species: MOUSE, Strain/Sex: B6C3F1/MALE, Route: ORAL, Dose: 0, 2.5, 25, 50 MG/KG BW IN DIET FOR 104 WK (STUDY DURATION: 104 WK), Dose: 0, 2.5, 25, 50 MG/KG BW IN DIET FOR 104 WK (STUDY DURATION: 104 WK)) was “inactive; negative”; the carcinogen call (Species: RAT, Strain/Sex: F344/FEMALE, Route: GAVAGE, Dose: 0, 25, 50 MG/KG BODY WT (TELONE II) IN CORN OIL 3 D/WK FOR 104 WK, Dose: 0, 25, 50 MG/KG BODY WT (TELONE II) IN CORN OIL 3 D/WK FOR 104 WK, Tumor Site: Type of Lesion: FORESTOMACH: SQUAMOUS CELL PAPILLOMA) was “active; positive”. In addition, the carcinogen call runs as follows: (Species: RAT, Strain/Sex: F344/FEMALE, Route: INHALATION, Dose: 0, 5, 20, 60 PPM TECHNICAL GRADE 6 HR/D 5 D/WK FOR 2 YR (STUDY DURATION: 2 YR), Dose: 0, 5, 20, 60 PPM TECHNICAL GRADE 6 HR/D 5 D/WK FOR 2 YR (STUDY DURATION: 2 YR)) “inactive; negative”; (Species: RAT, Strain/Sex: F344/FEMALE, Route: ORAL, Dose: 0, 2.5, 12.5, 25 MG/KG BW IN DIET FOR 104 WK (STUDY DURATION: 104 WK), Dose: 0, 2.5, 12.5, 25 MG/KG BW IN DIET FOR 104 WK (STUDY DURATION: 104 WK), Tumor Site: Type of Lesion: LIVER: HEPATOCELLULAR ADENOMA) “active; positive”; (Species: RAT, Strain/Sex: F344/MALE, Route: GAVAGE, Dose: 0, 25, 50 MG/KG BODY WT (TELONE II) IN CORN OIL 3 D/WK FOR 104 WK, Dose: 0, 25, 50 MG/KG BODY WT (TELONE II) IN CORN OIL 3 D/WK FOR 104 WK, Tumor Site: Type of Lesion: FORESTOMACH: SQUAMOUS CELL PAPILLOMA, SQUAMOUS CELL PAPILLOMA OR CARCINOMA, LIVER: NEOPLASTIC NODULE, NEOPLASTIC NODULE) “active; positive”; (Species: RAT, Strain/Sex: F344/MALE, Route: INHALATION, Dose: 0, 5, 20, 60 PPM TECHNICAL GRADE 6 HR/D 5 D/WK FOR 2 YR (STUDY DURATION: 2 YR), Dose: 0, 5, 20, 60 PPM TECHNICAL GRADE 6 HR/D 5 D/WK FOR 2 YR (STUDY DURATION: 2 YR)) “inactive; negative”; (Species: RAT, Strain/Sex: F344/MALE, Route: ORAL, Dose: 0, 2.5, 12.5, 25 MG/KG BW IN DIET FOR 104 WK (STUDY DURATION: 104 WK), Dose: 0, 2.5, 12.5, 25 MG/KG BW IN DIET FOR 104 WK (STUDY DURATION: 104 WK), Tumor Site: Type of Lesion: LIVER: HEPATOCELLULAR ADENOMA) “active; positive”.

In the case of `CCC1CO1` (configuration not stated), the carcinogen call was “inactive; negative” (Species: MOUSE, Strain/Sex: B6C3F1/FEMALE, Route: INHALATION, Dose: 0, 50, 100 PPM 6 HR/D 5D/WK FOR 102 WK (STUDY DURATION: 103 WK), Dose: 0, 50, 100 PPM 6 HR/D 5D/WK FOR 102 WK (STUDY DURATION: 103 WK)); “inactive; negative” (Species: MOUSE, Strain/Sex: B6C3F1/MALE, Route: INHALATION, Dose: 0, 50, 100 PPM 6 HR/D 5D/WK FOR 102 WK (STUDY DURATION: 103 WK), Dose: 0, 50, 100 PPM 6 HR/D 5D/WK FOR 102 WK (STUDY DURATION: 103 WK)); “equivocal” (Species: RAT, Strain/Sex: F344/FEMALE, Route: INHALATION, Dose: 0, 200, 400 PPM 6 HR/D 5 D/WK FOR 103 WK (STUDY DURATION: 104 WK), Dose: 0, 200, 400 PPM 6 HR/D 5 D/WK FOR 103 WK (STUDY DURATION: 104 WK), Tumor Site: Type of Lesion: NASAL CAVITY: PAPILLARY ADENOMA); “active; positive” (Species: RAT, Strain/Sex: F344/MALE, Route: INHALATION, Dose: 0, 200, 400 PPM 6 HR/D 5D/WK FOR 103 WK (STUDY DURATION: 104 WK), Dose: 0, 200, 400 PPM 6 HR/D 5D/WK FOR 103 WK (STUDY DURATION: 104 WK), Tumor Site: Type of Lesion: NASAL CAVITY: PAPILLARY ADENOMA, LUNG: ALVEOLAR/BRONCHIOLAR CARCINOMA, LUNG: ALVEOLAR/BRONCHIOLAR ADENOMA OR CARCINOMA, Tumor Site: Type of Lesion: NASAL CAVITY: PAPILLARY ADENOMA, LUNG: ALVEOLAR/BRONCHIOLAR CARCINOMA, LUNG: ALVEOLAR/BRONCHIOLAR ADENOMA OR CARCINOMA).

Turning to `Cc1c2ccccc2c(C)c2c3c(ccc12)[C@H](O)[C@@H](O)C=C3`, the carcinogen call (Species: RAT, Strain/Sex: SPRAGUE-DAWLEY/FEMALE (8/GROUP), Route: SUBCUTANEOUS, Dose: 0.1 UMOL 3X A WK FOR 20 DOSES (STUDY DURATION: 38 WK), Tumor Site: Type of Lesion: MAMMARY: ADENOCARCINOMA) was “active; positive (100%); no tumors at injection site” and the carcinogen call (Species: RAT, Strain/Sex: SPRAGUE-DAWLEY/FEMALE (8/GROUP), Route: SUBCUTANEOUS, Dose: 0.2 UMOL 3X A WK FOR 20 DOSES (STUDY DURATION: 30 WK), Tumor Site: Type of Lesion: MAMMARY: ADENOCARCINOMA) was “active; positive (100%); no tumors at injection site”.

As to `Cc1cc(NS(=O)(=O)c2ccc(N)cc2)no1`, the carcinogen call (Species: RAT, Strain/Sex: CD-1/MALE,FEMALE, Route: ORAL, Dose: 25, 50, 150, 300, 600 MG/KG/D IN DIET FOR 60 WK, Dose: 25, 50, 150, 300, 600 MG/KG/D IN DIET FOR 60 WK, Tumor Site: Type of Lesion: THYROID GLAND: ADENOMA OR NODULES) was “active; positive”.

`O=[N+]([O-])c1cccc2c1ccc1c3ccccc3ccc21`: the carcinogen call reads like this: (Species: MOUSE, Strain/Sex: ICR/FEMALE, Route: INTRAPERITONEAL, Dose: 0, 100 NMOL (TOTAL DOSE) ADMINISTERED IN 3 SUBDOSES OF 1/7, 2/7, AND 4/7 ON DAYS 1, 8 AND 15 OF LIFE, RESPECTIVELY (STUD) “inactive; negative”; (Species: MOUSE, Strain/Sex: ICR/MALE, Route: INTRAPERITONEAL, Dose: 0, 100 NMOL (TOTAL DOSE) ADMINISTERED IN 3 SUBDOSES OF 1/7, 2/7, AND 4/7 ON DAYS 1, 8 AND 15 OF LIFE, RESPECTIVELY (STUD) “inactive; negative”.

Regarding `NC(=O)N(N)c1ccccc1`, the carcinogen call (Species: MOUSE, Route: ORAL, Tumor Site: Type of Lesion: LIVER, LUNG) was “active; positive”.

As to `Cc1cc(C)c(N=Nc2c(O)c(S(=O)(=O)O)cc3cc(S(=O)(=O)O)ccc23)cc1C`, the carcinogen call (Species: RAT, Route: ORAL, Tumor Site: Type of Lesion: LIVER) is “active; positive”.

With `Cn1cnc([N+](=O)[O-])c1Sc1ncnc2nc[nH]c12`, the carcinogen call is, setting by setting: (Species: MOUSE, Strain/Sex: B6C3F1/FEMALE, Route: ORAL, Dose: 0, 5, 20 PPM IN DIET FOR 100 WK (STUDY DURATION: 100 WK), Dose: 0, 5, 20 PPM IN DIET FOR 100 WK (STUDY DURATION: 100 WK), Tumor Site: Type of Lesion: HEMATOPOIETIC SYSTEM: LYMPHOMA, UTERUS: HEMANGIODOTHELIOMA) “active; positive”; (Species: MOUSE, Strain/Sex: B6C3F1/MALE, Route: ORAL, Dose: 0, 5, 20 PPM IN DIET FOR 100 WK (STUDY DURATION: 100 WK), Dose: 0, 5, 20 PPM IN DIET FOR 100 WK (STUDY DURATION: 100 WK)) “inactive; negative”; (Species: MOUSE, Strain/Sex: SWISS/MALE,FEMALE, Route: INTRAPERITONEAL, Dose: 40 MG/KG IN NAOH-SALINE 1/D ON D 1-4 AFTER BIRTH, Tumor Site: Type of Lesion: HEMATOPOIETIC SYSTEM (LEUKEMIA)) “active; positive”; (Species: RAT, Strain/Sex: F344/MALE,FEMALE, Route: ORAL, Dose: 150 MG/KG IN DIET FOR 52 WK, Tumor Site: Type of Lesion: EAR: SQUAMOUS CELL CARCINOMA) “active; positive”; (Species: RAT, Strain/Sex: SPRAGUE-DAWLEY/FEMALE, Route: ORAL, Dose: 1.5, 2.2 G/RAT IN DIET (ESTIMATED TOTAL), Tumor Site: Type of Lesion: THYMUS GLAND: LYMPHOMA, EAR (DUCT): SQUAMOUS CELL CARCINOMA) “active; positive”.
